# Laboratory results taken from publication PMC9090415, “Discovery of small molecule inhibitors of Plasmodium falciparum apicoplast DNA polymerase” (Journal of Enzyme Inhibition and Medicinal Chemistry, 2022).
# Molecular target: P. falciparum apicoplast DNA polymerase (Pf-apPOL) (Plasmodium falciparum, UniProt Q8ILY1)
# Test: Fluorescence-based high-throughput DNA polymerase assay (molecular beacon), primary screen and dose-response
# Format: biochemical
# In short: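 Single-point screening used 10 µM compound with 20 nM polymerase, 20 nM hairpin substrate and 6 µM dNTPs for 90 min at 25 °C. Confirmatory titrations (2.5–80 µM) followed fluorescence at three times, and IC50 was derived from a fit including a cooperativity term n.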
# [1] = supplemental file 2, sheet IC50 nontoxic compounds; Pf-apPOL
# Chain of P. falciparum apicoplast DNA polymerase (Pf-apPOL) (Q8ILY1 entry or part of it): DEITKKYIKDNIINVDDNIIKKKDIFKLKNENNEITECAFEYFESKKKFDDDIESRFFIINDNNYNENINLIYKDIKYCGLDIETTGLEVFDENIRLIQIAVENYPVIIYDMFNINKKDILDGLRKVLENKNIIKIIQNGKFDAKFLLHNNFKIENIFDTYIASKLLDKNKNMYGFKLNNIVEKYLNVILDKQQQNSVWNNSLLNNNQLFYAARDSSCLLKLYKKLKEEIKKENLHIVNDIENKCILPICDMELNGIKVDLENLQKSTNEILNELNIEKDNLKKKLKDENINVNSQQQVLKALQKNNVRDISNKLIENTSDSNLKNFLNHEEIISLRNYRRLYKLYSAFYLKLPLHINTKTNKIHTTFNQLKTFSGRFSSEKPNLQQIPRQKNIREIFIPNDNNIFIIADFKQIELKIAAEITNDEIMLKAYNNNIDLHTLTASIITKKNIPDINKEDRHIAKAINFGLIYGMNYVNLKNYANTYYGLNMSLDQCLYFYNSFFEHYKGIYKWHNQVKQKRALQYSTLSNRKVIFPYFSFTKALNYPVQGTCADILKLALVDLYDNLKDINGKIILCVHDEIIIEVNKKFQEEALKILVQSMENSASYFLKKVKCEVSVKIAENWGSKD
compound,measurement,setting,value
COc1ccc(S(=O)(=O)/N=C2\NC(=O)/C(=C3\C(=O)Nc4ccc([N+](=O)[O-])cc43)S2)cc1 [KU0054985],DNA Pol,"'DNA Pol' of the 186 hits list (primary screen result); unit not given; 90 min, 10 µM",41
same,% inhibition Apo pol 10',DRC-1; 10'; concentration 2.5,18.5864%
same,% inhibition Apo pol 10',DRC-1; 10'; concentration 5,36.9179%
same,% inhibition Apo pol 10',DRC-1; 10'; concentration 10,67.7559%
same,% inhibition Apo pol 10',DRC-1; 10'; concentration 20,96.4602%
same,% inhibition Apo pol 10',DRC-1; 10'; concentration 40,99.5336%
same,% inhibition Apo pol 10',DRC-1; 10'; concentration 80,99.5405%
same,% inhibition Apol 90',DRC-1; 90'; concentration 2.5,1.843%
same,% inhibition Apol 90',DRC-1; 90'; concentration 5,6.911%
same,% inhibition Apol 90',DRC-1; 90'; concentration 10,25.9736%
same,% inhibition Apol 90',DRC-1; 90'; concentration 20,66.8469%
same,% inhibition Apol 90',DRC-1; 90'; concentration 40,95.4915%
same,% inhibition Apol 90',DRC-1; 90'; concentration 80,99.0869%
same,% inhibition apPOL 180',DRC-1; 180'; concentration 2.5,-5.136%
same,% inhibition apPOL 180',DRC-1; 180'; concentration 5,-1.681%
same,% inhibition apPOL 180',DRC-1; 180'; concentration 10,15.3394%
same,% inhibition apPOL 180',DRC-1; 180'; concentration 20,51.5386%
same,% inhibition apPOL 180',DRC-1; 180'; concentration 40,94.1836%
same,% inhibition apPOL 180',DRC-1; 180'; concentration 80,99.3305%
same,% inhibition Apo pol 5',DRC-2; 5'; concentration 2.5,4%
same,% inhibition Apo pol 5',DRC-2; 5'; concentration 5,9%
same,% inhibition Apo pol 5',DRC-2; 5'; concentration 10,30%
same,% inhibition Apo pol 5',DRC-2; 5'; concentration 20,52%
same,% inhibition Apo pol 5',DRC-2; 5'; concentration 40,63%
same,% inhibition Apo pol 5',DRC-2; 5'; concentration 80,67%
same,% inhibition Apol 40',DRC-2; 40'; concentration 2.5,3.68%
same,% inhibition Apol 40',DRC-2; 40'; concentration 5,6%
same,% inhibition Apol 40',DRC-2; 40'; concentration 10,20%
same,% inhibition Apol 40',DRC-2; 40'; concentration 20,38%
same,% inhibition Apol 40',DRC-2; 40'; concentration 40,74%
same,% inhibition Apol 40',DRC-2; 40'; concentration 80,82%
same,% inhibition ApPOL 90',DRC-2; 90'; concentration 2.5,3.52%
same,% inhibition ApPOL 90',DRC-2; 90'; concentration 5,5%
same,% inhibition ApPOL 90',DRC-2; 90'; concentration 10,18%
same,% inhibition ApPOL 90',DRC-2; 90'; concentration 20,33%
same,% inhibition ApPOL 90',DRC-2; 90'; concentration 40,75%
same,% inhibition ApPOL 90',DRC-2; 90'; concentration 80,85%
same,% inhibition apPOL 180',DRC-2; 180'; concentration 2.5,4.38%
same,% inhibition apPOL 180',DRC-2; 180'; concentration 5,2.14%
same,% inhibition apPOL 180',DRC-2; 180'; concentration 10,13%
same,% inhibition apPOL 180',DRC-2; 180'; concentration 20,26%
same,% inhibition apPOL 180',DRC-2; 180'; concentration 40,72%
same,% inhibition apPOL 180',DRC-2; 180'; concentration 80,88%
same,DNA Pol,"primary screen value of the library well; unit not given; 90 min, 10 µM",41
Cn1nc(C(=O)N2CCc3c(nc4cc(-c5ccccc5)[nH]n4c3=O)C2)c2ccccc21 [Molecule 18],IC50,[1],6.38 µM
"Cc1cccc(CC(=O)N2CCc3c(nc4cc(-c5ccccc5)[nH]n4c3=O)C2)c1 [Molecule 12, Cc1cccc(c1)CC(=O)N1CCc2c(C1)nc1n(c2=O)[nH]c(c1)c1ccccc1]",% inhibition Apo pol 10',DRC-1; 10'; concentration 2.5,15%
same,% inhibition Apo pol 10',DRC-1; 10'; concentration 5,48%
same,% inhibition Apo pol 10',DRC-1; 10'; concentration 10,68%
same,% inhibition Apo pol 10',DRC-1; 10'; concentration 20,81%
same,% inhibition Apo pol 10',DRC-1; 10'; concentration 40,86%
same,% inhibition Apo pol 10',DRC-1; 10'; concentration 80,83%
same,% inhibition Apol 90',DRC-1; 90'; concentration 2.5,3.59%
same,% inhibition Apol 90',DRC-1; 90'; concentration 5,28%
same,% inhibition Apol 90',DRC-1; 90'; concentration 10,50%
same,% inhibition Apol 90',DRC-1; 90'; concentration 20,69%
same,% inhibition Apol 90',DRC-1; 90'; concentration 40,81%
same,% inhibition Apol 90',DRC-1; 90'; concentration 80,85%
same,% inhibition apPOL 180',DRC-1; 180'; concentration 2.5,-4%
same,% inhibition apPOL 180',DRC-1; 180'; concentration 5,13%
same,% inhibition apPOL 180',DRC-1; 180'; concentration 10,32%
same,% inhibition apPOL 180',DRC-1; 180'; concentration 20,55%
same,% inhibition apPOL 180',DRC-1; 180'; concentration 40,73%
same,% inhibition apPOL 180',DRC-1; 180'; concentration 80,82%
same,% inhibition Apo pol 5',"DRC-2, 5', concentration 10 (unit not given)",44%
same,% inhibition Apo pol 5',"DRC-2, 5', concentration 40 (unit not given)",48%
same,% inhibition Apol 40',"DRC-2, 40', concentration 40 (unit not given)",66%
same,% inhibition ApPOL 90',"DRC-2, 90', concentration 20 (unit not given)",66%
same,% inhibition ApPOL 90',"DRC-2, 90', concentration 40 (unit not given)",70%
same,% inhibition apPOL 180',"DRC-2, 180', concentration 10 (unit not given)",44%
same,% inhibition apPOL 180',"DRC-2, 180', concentration 40 (unit not given)",70%
same,% inhibition apPOL 180',"DRC-2, 180', concentration 80 (unit not given)",69%
same,% inhibition Apo pol 5',DRC-2; 5'; concentration 2.5,7%
same,% inhibition Apo pol 5',DRC-2; 5'; concentration 5,23%
same,% inhibition Apo pol 5',DRC-2; 5'; concentration 10,44%
same,% inhibition Apo pol 5',DRC-2; 5'; concentration 20,49%
same,% inhibition Apo pol 5',DRC-2; 5'; concentration 40,48%
same,% inhibition Apo pol 5',DRC-2; 5'; concentration 80,43%
same,% inhibition Apol 40',DRC-2; 40'; concentration 2.5,5.58%
same,% inhibition Apol 40',DRC-2; 40'; concentration 5,25%
same,% inhibition Apol 40',DRC-2; 40'; concentration 10,54%
same,% inhibition Apol 40',DRC-2; 40'; concentration 20,65%
same,% inhibition Apol 40',DRC-2; 40'; concentration 40,66%
same,% inhibition Apol 40',DRC-2; 40'; concentration 80,62%
same,% inhibition ApPOL 90',DRC-2; 90'; concentration 2.5,4.61%
same,% inhibition ApPOL 90',DRC-2; 90'; concentration 5,22%
same,% inhibition ApPOL 90',DRC-2; 90'; concentration 10,53%
same,% inhibition ApPOL 90',DRC-2; 90'; concentration 20,66%
same,% inhibition ApPOL 90',DRC-2; 90'; concentration 40,70%
same,% inhibition ApPOL 90',DRC-2; 90'; concentration 80,67%
same,% inhibition apPOL 180',DRC-2; 180'; concentration 2.5,2.3%
same,% inhibition apPOL 180',DRC-2; 180'; concentration 5,12%
same,% inhibition apPOL 180',DRC-2; 180'; concentration 10,44%
same,% inhibition apPOL 180',DRC-2; 180'; concentration 20,63%
same,% inhibition apPOL 180',DRC-2; 180'; concentration 40,70%
same,% inhibition apPOL 180',DRC-2; 180'; concentration 80,69%
same,% inhibition Apo pol 10',"first dose-response, 10', concentration 5 (unit not given)",48%
same,% inhibition Apo pol 10',"first dose-response, 10', concentration 20 (unit not given)",81%
same,% inhibition Apol 90',"first dose-response, 90', concentration 20 (unit not given)",69%
same,% inhibition Apol 90',"first dose-response, 90', concentration 40 (unit not given)",81%
same,DNA Pol,"primary screen value of the 186 hits; unit not given; 90 min, 10 µM",49
same,DNA Pol,"primary screen value, head ""DNA Pol"", unit not given; 90 min, 10 µM",49
COc1cccc(C(=O)N2CCc3c(nc4cc(-c5ccccc5)[nH]n4c3=O)C2)c1OC [Molecule 22],IC50,[1],7.31 µM
COc1ccccc1CC(=O)N1CCc2c(nc3cc(-c4ccccc4Cl)[nH]n3c2=O)C1 [Molecule 49],IC50,[1],12.5 µM
O=C(Nc1nnc(-c2cccs2)o1)c1ccc([N+](=O)[O-])o1 [Molecule 74],IC50,[1],30.8 µM
"CN(C)C=C1SCc2ccccc2C1=O [Molecule 77, CN(C=C1SCc2c(C1=O)cccc2)C]",DNA Pol,"'DNA Pol'; screening value, unit not given; 90 min, 10 µM",85
same,% inhibition Apo pol 10',DRC-1; 10'; concentration 2.5,11.5763%
same,% inhibition Apo pol 10',DRC-1; 10'; concentration 5,16.7667%
same,% inhibition Apo pol 10',DRC-1; 10'; concentration 10,31.6418%
same,% inhibition Apo pol 10',DRC-1; 10'; concentration 20,51.9221%
same,% inhibition Apo pol 10',DRC-1; 10'; concentration 40,56.5642%
same,% inhibition Apo pol 10',DRC-1; 10'; concentration 80,84.5209%
same,% inhibition Apol 90',DRC-1; 90'; concentration 2.5,2.782%
same,% inhibition Apol 90',DRC-1; 90'; concentration 5,3.396%
same,% inhibition Apol 90',DRC-1; 90'; concentration 10,10.9684%
same,% inhibition Apol 90',DRC-1; 90'; concentration 20,24.755%
same,% inhibition Apol 90',DRC-1; 90'; concentration 40,26.7268%
same,% inhibition Apol 90',DRC-1; 90'; concentration 80,62.9199%
same,% inhibition apPOL 180',DRC-1; 180'; concentration 2.5,-2.727%
same,% inhibition apPOL 180',DRC-1; 180'; concentration 5,-5.416%
same,% inhibition apPOL 180',DRC-1; 180'; concentration 10,0.7299%
same,% inhibition apPOL 180',DRC-1; 180'; concentration 20,8.887%
same,% inhibition apPOL 180',DRC-1; 180'; concentration 40,10.8248%
same,% inhibition apPOL 180',DRC-1; 180'; concentration 80,43.5104%
same,% inhibition Apo pol 5',"DRC-2, 5', concentration 2.5",2.65%
same,% inhibition Apo pol 5',"DRC-2, 5', concentration 5",5.48%
same,% inhibition Apo pol 5',"DRC-2, 5', concentration 10",20%
same,% inhibition Apo pol 5',"DRC-2, 5', concentration 20",33%
same,% inhibition Apo pol 5',"DRC-2, 5', concentration 40",41%
same,% inhibition Apo pol 5',"DRC-2, 5', concentration 80",52%
same,% inhibition Apol 40',"DRC-2, 40', concentration 2.5",2%
same,% inhibition Apol 40',"DRC-2, 40', concentration 5",4%
same,% inhibition Apol 40',"DRC-2, 40', concentration 10",13%
same,% inhibition Apol 40',"DRC-2, 40', concentration 20",26%
same,% inhibition Apol 40',"DRC-2, 40', concentration 40",34%
same,% inhibition Apol 40',"DRC-2, 40', concentration 80",57%
same,% inhibition ApPOL 90',"DRC-2, 90', concentration 2.5",0.807%
same,% inhibition ApPOL 90',"DRC-2, 90', concentration 5",1%
same,% inhibition ApPOL 90',"DRC-2, 90', concentration 10",8%
same,% inhibition ApPOL 90',"DRC-2, 90', concentration 20",18%
same,% inhibition ApPOL 90',"DRC-2, 90', concentration 40",26%
same,% inhibition ApPOL 90',"DRC-2, 90', concentration 80",54%
same,% inhibition apPOL 180',"DRC-2, 180', concentration 2.5",-3%
same,% inhibition apPOL 180',"DRC-2, 180', concentration 5",-3.45%
same,% inhibition apPOL 180',"DRC-2, 180', concentration 10",0.193%
same,% inhibition apPOL 180',"DRC-2, 180', concentration 20",7.49%
same,% inhibition apPOL 180',"DRC-2, 180', concentration 40",14%
same,% inhibition apPOL 180',"DRC-2, 180', concentration 80",45%
same,% inhibition Apol 40',conc 20 (unit not given); 40'; DRC-2,26%
same,% inhibition ApPOL 90',conc 40 (unit not given); 90'; DRC-2,26%
same,DNA Pol,"primary screen hit value, DNA Pol (186 hits); 90 min, 10 µM",85
